# Assay results as given in PMC4907197 (Applied and Environmental Microbiology, 2016).
# Legend:
# [1] = molecular target: T1, KES23460 (Pseudomonas sp. AAC, UniProt A0ABD3YRH9); test: KES23458-coupled NADH formation, A340; type: biochemical; details: NAD, pH […]
# T1 construct: gene FG99_15390
# T1 sequence (A0ABD3YRH9 1-498): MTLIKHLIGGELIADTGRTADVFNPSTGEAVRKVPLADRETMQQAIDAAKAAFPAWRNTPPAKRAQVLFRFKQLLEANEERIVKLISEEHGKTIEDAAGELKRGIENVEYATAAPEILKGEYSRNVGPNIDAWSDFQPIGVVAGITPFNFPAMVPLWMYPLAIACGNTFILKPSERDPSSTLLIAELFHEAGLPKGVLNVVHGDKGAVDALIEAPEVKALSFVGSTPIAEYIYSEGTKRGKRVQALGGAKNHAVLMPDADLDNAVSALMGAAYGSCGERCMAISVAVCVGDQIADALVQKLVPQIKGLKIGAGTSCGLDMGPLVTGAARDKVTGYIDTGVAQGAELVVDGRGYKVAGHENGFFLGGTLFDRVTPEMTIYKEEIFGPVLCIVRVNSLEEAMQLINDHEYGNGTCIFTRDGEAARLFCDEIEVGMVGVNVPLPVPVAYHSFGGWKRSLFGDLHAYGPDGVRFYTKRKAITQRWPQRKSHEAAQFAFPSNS
# [2] = molecular target: T2, KES23458 (Pseudomonas sp. AAC, UniProt Z9SKW1E3X5); test: X-ray crystallography; mass spectrometry; type: binding; details: crystal density atypical of PLP (PLP'), no aldimine seen; MS shows aldimine-bound unmodified PLP; covalent (Lys288 presumed); native structure 1.24 Å
# T2 construct: full length minus N-terminal Met by mass spectrometry; homodimer; phospho-His31 and phospho-His360 observed; deconvoluted MS peak 50,399 (reduced with PLP)
# T2 sequence (Z9SKW1E3X5 22-468): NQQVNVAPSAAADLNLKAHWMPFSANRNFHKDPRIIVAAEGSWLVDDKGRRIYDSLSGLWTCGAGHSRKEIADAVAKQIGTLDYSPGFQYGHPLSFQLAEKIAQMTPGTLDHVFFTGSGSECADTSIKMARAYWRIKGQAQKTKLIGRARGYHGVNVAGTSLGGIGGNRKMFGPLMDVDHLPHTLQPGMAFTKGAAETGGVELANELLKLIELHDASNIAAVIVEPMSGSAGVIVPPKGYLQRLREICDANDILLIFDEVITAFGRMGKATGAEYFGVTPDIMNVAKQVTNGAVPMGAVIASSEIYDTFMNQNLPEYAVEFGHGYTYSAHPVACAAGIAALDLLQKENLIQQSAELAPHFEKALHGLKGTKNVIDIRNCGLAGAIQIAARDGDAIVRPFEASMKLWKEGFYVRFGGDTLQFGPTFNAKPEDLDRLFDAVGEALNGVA
structure (smiles),measurement,setting,value
CC(C)(COP(=O)(O)OP(=O)(O)OC[C@H]1O[C@@H](n2cnc3c(N)ncnc32)[C@H](O)[C@@H]1OP(=O)(O)O)[C@@H](O)C(=O)NCCC(=O)NCCS [CoA],"KES23458-coupled NADH formation, A340",[1]; co-substrate malonate semialdehyde formed in situ,"In the presence of CoA, the transthioesterification step was observed to be significantly faster"
Cc1ncc(COP(=O)(O)O)c(C=O)c1O [PLP],X-ray crystallography; mass spectrometry,[2],with the mass gain corresponding to aldimine-bound unmodified PLP
O=CCC(=O)O [malonic acid semialdehyde],"KES23458-coupled NADH formation, A340","[1]; formed in situ from […] beta-alanine and pyruvate by KES23458, with or without CoA","significant activity with only one of the substrates tested, malonic acid semialdehyde"
